The values below come from US12624044B2, “SMARCA degraders and uses thereof” (Kymera Therapeutics, Inc., priority 2019, dated 2026).

This experiment concerns the target SMARCA2 (Homo sapiens, UniProt P51531). In words: MSD SMARCA2 degradation in NCI-H1299 cell line (24 h). It counts as cell-based. The arrangement: HC: NCI-H1299 cells treated with DMSO; host or cells: NCI-H1299. To be noted: for Dmax: NCI-H1299, NCI-H1299 cells; for DC50: NCI-H1299 cells, read-out: SMARCA2 MSD H1299 degradation 24 h: External Abs-DC50. The protocol: Example 32. MSD SMARCA2 Degradation in […] Cell Line
Cell Culture: Cells were cultured in exponential growth phase.
Compound Preparation and Treatment: NCI-H1299 cells were seeded into the 96-well plate at 4.0*10^4 cells per 100 ul per well. Incubate the plate in the incubator overnight. The next day, compounds were diluted to designed stock concentration by TECAN, then perform a 3 fold, 9-point dilution via transferring 15 uL compound into 30 μL DMSO using Apricot. 200 nL diluted compound from compound source plate were transferred into the 96-intermediate plate as designated by using Echo550, followed with 100 ul culture medium to make the 2× compound solution. Cell plate were changed with 80 ul of fresh culture medium and 80 ul of 2× compound solution was added into the well to achieve the final designed concentration. Cell plate was then shaken at 720 rpm for 5 min and incubated for 24 hours in the incubator.
Sample Preparation: Media was aspirated from the cultures and the plate was washed with PBS twice. 60 ul of pre-chilled PIPA lysis buffer (Boston BioProducts BP-115D) with protease inhibitor were directly added into the well to lyze the cells for 20 minutes at 4° C. Cell lysates were collected.
MSD Procedure: The MSD plate was coated with 40 ul cell lysate and incubated at 4° C. overnight. The next day, the MSD coated bare plate was washed 3 times with 150 ul 1×TBST per well, blocked with 150 ul of blocking buffer per well, and shaken for 1 hour at RT, 600 rpm. Blocking buffer was 3% Blocker A in TBST. MSD plate was then washed 3 times with 150 ul 1×TBST per well and Primary Detection antibody (Rabbit anti-SMARCA2/BRM antibody, 100 μg/ml, ab223735) was added to a final [conc.]: 0.3 ug/ml, 25 ul/well and shaken for 1 hour at RT, 600 rpm. Antibody was prepared in Antibody Detection buffer (1% Blocker A in 1×TBST). The MSD plate was then washed 3 times with 150 ul 1×TBST per well. Secondary Detection antibody (SULFO-TAG anti-species antibody) was then added to a final [conc.]: 1 ug/ml, 25 ul/well, and shaken for 1 hour at RT, 600 rpm. Antibodies were prepared in Antibody Detection buffer (1% Blocker A in 1×TBST). MSD plate was washed 3 times with 150 ul 1×TBST per well and 2×MSD reading buffer was added, 150 ul per well, and diluted from 4× with water. MSD instrument was then read.
Data Analysis: The percentage of relative level of SMARCA2 level was calculated following equation below.
LC: A2780, SMARCA2 negative cells. HC: NCI-H1299 cells treated with DMSO.
The letter codes for the percentage of SMARCA2 degradation after 24 hours (Dmax %) include: A (>90% degradation), B (>70-90 degradation), C (50-70 degradation), and D (<50% degradation).

SMARCA2, sequence (P51531 whole entry): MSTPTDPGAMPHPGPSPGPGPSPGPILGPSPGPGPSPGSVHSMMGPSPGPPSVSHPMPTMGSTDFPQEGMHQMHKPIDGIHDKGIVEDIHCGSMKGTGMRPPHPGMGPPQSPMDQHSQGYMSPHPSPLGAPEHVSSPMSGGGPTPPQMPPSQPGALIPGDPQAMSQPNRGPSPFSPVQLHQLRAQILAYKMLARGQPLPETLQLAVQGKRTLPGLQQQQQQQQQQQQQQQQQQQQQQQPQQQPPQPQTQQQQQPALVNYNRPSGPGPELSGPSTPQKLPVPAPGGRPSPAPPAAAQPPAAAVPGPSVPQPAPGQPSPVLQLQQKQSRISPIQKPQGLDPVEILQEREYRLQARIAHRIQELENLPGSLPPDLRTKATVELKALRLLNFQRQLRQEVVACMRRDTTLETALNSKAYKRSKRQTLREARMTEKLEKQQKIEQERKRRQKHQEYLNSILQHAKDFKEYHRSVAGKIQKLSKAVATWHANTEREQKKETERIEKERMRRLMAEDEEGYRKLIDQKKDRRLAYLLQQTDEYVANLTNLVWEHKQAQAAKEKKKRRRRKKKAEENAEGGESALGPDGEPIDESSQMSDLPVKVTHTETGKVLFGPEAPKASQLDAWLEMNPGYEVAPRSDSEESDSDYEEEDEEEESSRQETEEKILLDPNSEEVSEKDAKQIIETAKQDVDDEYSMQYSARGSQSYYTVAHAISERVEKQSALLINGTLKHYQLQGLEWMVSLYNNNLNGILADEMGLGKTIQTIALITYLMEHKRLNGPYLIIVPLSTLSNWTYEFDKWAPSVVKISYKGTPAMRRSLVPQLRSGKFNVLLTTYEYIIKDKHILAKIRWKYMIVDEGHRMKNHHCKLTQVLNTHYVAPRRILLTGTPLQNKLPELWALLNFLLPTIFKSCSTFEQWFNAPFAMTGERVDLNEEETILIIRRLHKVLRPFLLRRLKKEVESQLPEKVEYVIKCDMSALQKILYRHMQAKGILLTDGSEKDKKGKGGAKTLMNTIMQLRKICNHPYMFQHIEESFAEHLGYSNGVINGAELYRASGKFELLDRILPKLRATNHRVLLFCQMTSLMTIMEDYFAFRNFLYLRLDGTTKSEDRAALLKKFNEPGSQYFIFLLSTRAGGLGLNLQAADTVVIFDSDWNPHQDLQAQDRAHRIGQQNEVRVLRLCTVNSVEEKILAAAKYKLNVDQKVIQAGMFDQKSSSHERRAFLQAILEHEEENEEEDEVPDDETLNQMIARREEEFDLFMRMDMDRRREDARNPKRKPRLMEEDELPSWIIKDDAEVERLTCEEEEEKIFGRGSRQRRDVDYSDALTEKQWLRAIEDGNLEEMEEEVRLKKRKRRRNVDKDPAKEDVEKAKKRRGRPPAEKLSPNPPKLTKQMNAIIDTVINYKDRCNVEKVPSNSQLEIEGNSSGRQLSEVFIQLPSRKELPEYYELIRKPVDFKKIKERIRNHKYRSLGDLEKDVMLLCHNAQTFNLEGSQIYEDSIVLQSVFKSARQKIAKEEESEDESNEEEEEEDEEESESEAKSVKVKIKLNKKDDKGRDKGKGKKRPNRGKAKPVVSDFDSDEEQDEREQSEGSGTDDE

As to `Cn1c(=O)n(C2CCC(=O)NC2=O)c2cccc(CCCCCCCc3cn(Cc4cccc(N5C[C@H]6C[C@@H]5CN6/C=C/C(=O)c5ccccc5O)n4)nn3)c21` (stereo partly drawn) [I-52], the Dmax is less than 50% and the half-maximal degradation concentration (DC50) is more than 1000 nM.

On to `Cn1c(=O)n(C2CCC(=O)NC2=O)c2cccc(CCCCCCCCc3cn(Cc4cccc(N5C[C@H]6C[C@@H]5CN6/C=C/C(=O)c5ccccc5O)n4)nn3)c21` (stereo partly drawn) [I-53], for which the Dmax is less than 50% and the DC50 is more than 1000 nM.

As for `O=C1CCC(n2c(=O)n(CCCCc3cn(Cc4cccc(N5C[C@H]6C[C@@H]5CN6/C=C/C(=O)c5ccccc5O)n4)nn3)c3ccccc32)C(=O)N1` (stereo partly drawn) [I-54], the greatest degradation seen (Dmax) is less than 50% and the DC50 is more than 1000 nM.

`O=C1CCC(n2c(=O)n(CCCCCc3cn(Cc4cccc(N5C[C@H]6C[C@@H]5CN6/C=C/C(=O)c5ccccc5O)n4)nn3)c3ccccc32)C(=O)N1` (stereo partly drawn) [I-55, 3-[3-[5-[1-[[6-[(1R,4R)-5-[(E)-3-(2-hydroxyphenyl)-3-oxo-prop-1-enyl]-2,5-diazabicyclo[2.2.1]heptan-2-yl]-2-pyridyl]methyl]triazol-4-yl]pentyl]-2-oxo-benzimidazol-1-yl]piperidine-2,6-dione]: the Dmax is less than 50% and the DC50 was more than 1000 nM.

`O=C1CCC(n2c(=O)n(CCCCCCc3cn(Cc4cccc(N5C[C@H]6C[C@@H]5CN6/C=C/C(=O)c5ccccc5O)n4)nn3)c3ccccc32)C(=O)N1` (stereo partly drawn) [I-56]: the Dmax is less than 50% and the DC50 was more than 1000 nM.

Consider `O=C1CCC(n2c(=O)n(CCCCCCCc3cn(Cc4cccc(N5C[C@H]6C[C@@H]5CN6/C=C/C(=O)c5ccccc5O)n4)nn3)c3ccccc32)C(=O)N1` (stereo partly drawn) [I-57], for which the Dmax is less than 50% and the DC50 was more than 1000 nM.

For the compound `O=C1CCC(n2c(=O)n(CCCCCCCCc3cn(Cc4cccc(N5C[C@H]6C[C@@H]5CN6/C=C/C(=O)c5ccccc5O)n4)nn3)c3ccccc32)C(=O)N1` (stereo partly drawn) [I-58], the Dmax is less than 50% and the DC50 is more than 1000 nM.

Consider `Cn1c(=O)n(C2CCC(=O)NC2=O)c2ccc(C#CCCc3cn(Cc4cccc(N5C[C@H]6C[C@@H]5CN6/C=C/C(=O)c5ccccc5O)n4)nn3)cc21` (stereo partly drawn) [I-59], for which the Dmax is less than 50% and the DC50 is more than 1000 nM.

In the case of `Cn1c(=O)n(C2CCC(=O)NC2=O)c2ccc(C#CCCCc3cn(Cc4cccc(N5C[C@H]6C[C@@H]5CN6/C=C/C(=O)c5ccccc5O)n4)nn3)cc21` (stereo partly drawn) [I-60], the Dmax is less than 50% and the DC50 is more than 1000 nM.

Regarding `Cn1c(=O)n(C2CCC(=O)NC2=O)c2ccc(C#CCCCCc3cn(Cc4cccc(N5C[C@H]6C[C@@H]5CN6/C=C/C(=O)c5ccccc5O)n4)nn3)cc21` (stereo partly drawn) [I-61], the Dmax was less than 50% and the DC50 is more than 1000 nM.

For the compound `Cn1c(=O)n(C2CCC(=O)NC2=O)c2ccc(C#CCCCCCc3cn(Cc4cccc(N5C[C@H]6C[C@@H]5CN6/C=C/C(=O)c5ccccc5O)n4)nn3)cc21` (stereo partly drawn) [I-62], the Dmax was less than 50% and the DC50 was more than 1000 nM.

As for `Cn1c(=O)n(C2CCC(=O)NC2=O)c2ccc(C#CCCCCCCc3cn(Cc4cccc(N5C[C@H]6C[C@@H]5CN6/C=C/C(=O)c5ccccc5O)n4)nn3)cc21` (stereo partly drawn) [I-63], the Dmax was less than 50% and the DC50 was more than 1000 nM.

As to `Cn1c(=O)n(C2CCC(=O)NC2=O)c2cccc(C#CCCc3cn(Cc4cccc(N5C[C@H]6C[C@@H]5CN6/C=C/C(=O)c5ccccc5O)n4)nn3)c21` (stereo partly drawn) [I-64], the Dmax was in the range of 70 to 90% and the DC50 was more than 1000 nM.

Take `Cn1c(=O)n(C2CCC(=O)NC2=O)c2cccc(C#CCCCc3cn(Cc4cccc(N5C[C@H]6C[C@@H]5CN6/C=C/C(=O)c5ccccc5O)n4)nn3)c21` (stereo partly drawn) [I-65]: the Dmax is less than 50% and the DC50 was more than 1000 nM.

Take `Cn1c(=O)n(C2CCC(=O)NC2=O)c2cccc(C#CCCCCc3cn(Cc4cccc(N5C[C@H]6C[C@@H]5CN6/C=C/C(=O)c5ccccc5O)n4)nn3)c21` (stereo partly drawn) [I-66]: the Dmax is less than 50% and the DC50 is more than 1000 nM.

With `Cn1c(=O)n(C2CCC(=O)NC2=O)c2cccc(C#CCCCCCc3cn(Cc4cccc(N5C[C@H]6C[C@@H]5CN6/C=C/C(=O)c5ccccc5O)n4)nn3)c21` (stereo partly drawn) [I-67], the Dmax was less than 50% and the DC50 was more than 1000 nM.

Regarding `Cn1c(=O)n(C2CCC(=O)NC2=O)c2cccc(C#CCCCCCCc3cn(Cc4cccc(N5C[C@H]6C[C@@H]5CN6/C=C/C(=O)c5ccccc5O)n4)nn3)c21` (stereo partly drawn) [I-68], the Dmax is less than 50% and the DC50 was more than 1000 nM.

Take `O=C1CCC(N2C(=O)c3cccc(OCCc4cn(CCCc5cccc(N6C[C@H]7C[C@@H]6CN7/C=C/C(=O)c6ccccc6O)n5)nn4)c3C2=O)C(=O)N1` (stereo partly drawn) [I-69]: the maximal degradation (Dmax) was less than 50% and the DC50 was more than 1000 nM.

`O=C1CCC(N2C(=O)c3cccc(OCCCc4cn(CCCc5cccc(N6C[C@H]7C[C@@H]6CN7/C=C/C(=O)c6ccccc6O)n5)nn4)c3C2=O)C(=O)N1` (stereo partly drawn) [I-70]: the greatest degradation seen (Dmax) is 70 to 90% and the DC50 was more than 1000 nM.

For `O=C1CCC(N2C(=O)c3cccc(OCCCCc4cn(CCCc5cccc(N6C[C@H]7C[C@@H]6CN7/C=C/C(=O)c6ccccc6O)n5)nn4)c3C2=O)C(=O)N1` (stereo partly drawn) [I-71, 2-(2,6-dioxopiperidin-3-yl)-4-(4-(1-(3-(6-((1R,4R)-5-((E)-3-(2-hydroxyphenyl)-3-oxoprop-1-en-1-yl)-2,5-diazabicyclo[2.2.1]heptan-2-yl)pyridin-2-yl)propyl)-1H-1,2,3-triazol-4-yl)butoxy)isoindoline-1,3-dione], the Dmax is less than 50% and the DC50 was more than 1000 nM.

Turning to `Cn1c(=O)n(C2CCC(=O)NC2=O)c2ccc(CNCCc3cn(Cc4cccc(N5C[C@H]6C[C@@H]5CN6/C=C/C(=O)c5ccccc5O)n4)nn3)cc21` (stereo partly drawn) [I-73], the Dmax was less than 50% and the DC50 is more than 1000 nM.

For `Cn1c(=O)n(C2CCC(=O)NC2=O)c2ccc(CNCCCc3cn(Cc4cccc(N5C[C@H]6C[C@@H]5CN6/C=C/C(=O)c5ccccc5O)n4)nn3)cc21` (stereo partly drawn) [I-74], the Dmax was less than 50% and the DC50 was more than 1000 nM.

As to `Cn1c(=O)n(C2CCC(=O)NC2=O)c2ccc(CNCCCCc3cn(Cc4cccc(N5C[C@H]6C[C@@H]5CN6/C=C/C(=O)c5ccccc5O)n4)nn3)cc21` (stereo partly drawn) [I-75], the Dmax is less than 50% and the DC50 is more than 1000 nM.

As to `Cn1c(=O)n(C2CCC(=O)NC2=O)c2ccc(CNCCCCCc3cn(Cc4cccc(N5C[C@H]6C[C@@H]5CN6/C=C/C(=O)c5ccccc5O)n4)nn3)cc21` (stereo partly drawn) [I-76], the greatest degradation seen (Dmax) was less than 50% and the DC50 was more than 1000 nM.

Consider `Cn1c(=O)n(C2CCC(=O)NC2=O)c2ccc(CNCCCCCCc3cn(Cc4cccc(N5C[C@H]6C[C@@H]5CN6/C=C/C(=O)c5ccccc5O)n4)nn3)cc21` (stereo partly drawn) [I-77], for which the Dmax is less than 50% and the DC50 was more than 1000 nM.

In the case of `Cn1c(=O)n(C2CCC(=O)NC2=O)c2cccc(CNCCc3cn(Cc4cccc(N5C[C@H]6C[C@@H]5CN6/C=C/C(=O)c5ccccc5O)n4)nn3)c21` (stereo partly drawn) [I-78, 3-[4-[[2-[1-[[6-[(1R,4R)-5-[(E)-3-(2-hydroxyphenyl)-3-oxo-prop-1-enyl]-2,5-diazabicyclo[2.2.1]heptan-2-yl]-2-pyridyl]methyl]triazol-4-yl]ethylamino]methyl]-3-methyl-2-oxo-benzimidazol-1-yl]piperidine-2,6-dione], the Dmax is less than 50% and the DC50 is more than 1000 nM.

As for `Cn1c(=O)n(C2CCC(=O)NC2=O)c2cccc(CNCCCc3cn(Cc4cccc(N5C[C@H]6C[C@@H]5CN6/C=C/C(=O)c5ccccc5O)n4)nn3)c21` (stereo partly drawn) [I-79], the Dmax is less than 50% and the DC50 is more than 1000 nM.

For `Cn1c(=O)n(C2CCC(=O)NC2=O)c2cccc(CNCCCCc3cn(Cc4cccc(N5C[C@H]6C[C@@H]5CN6/C=C/C(=O)c5ccccc5O)n4)nn3)c21` (stereo partly drawn) [I-80], the Dmax was less than 50% and the DC50 was more than 1000 nM.

Turning to `Cn1c(=O)n(C2CCC(=O)NC2=O)c2cccc(CNCCCCCc3cn(Cc4cccc(N5C[C@H]6C[C@@H]5CN6/C=C/C(=O)c5ccccc5O)n4)nn3)c21` (stereo partly drawn) [I-81], the Dmax is less than 50% and the DC50 was more than 1000 nM.

For `Cn1c(=O)n(C2CCC(=O)NC2=O)c2cccc(CNCCCCCCc3cn(Cc4cccc(N5C[C@H]6C[C@@H]5CN6/C=C/C(=O)c5ccccc5O)n4)nn3)c21` (stereo partly drawn) [I-82], the greatest degradation seen (Dmax) was less than 50% and the DC50 is more than 1000 nM.
